In patent publication EP0294538B1, “Use of nigericin for the production of a medicament for the treatment of viral diseases” (S O "PHARMACHIM", priority 1987, dated 1988):

Assays:
[1] = test system: Virus-Erkrankungen des Auges; assay: Clinical study of different treatments of viral diseases of the eye (Table 1); assay type: in vivo, Patienten
Text: Ergebnisse der klinischen Untersuchungen von Nigerizin (s. Tabelle 1).
Das Nigerizin enthaltende Arzneimittel in Form von Tropfen, Salbe und Suppositorien wurde an insgesamt 711 Patienten mit verschiedenen Virus-Erkrankungen: Labial-, Fazial-, Genital- und Gluteal- oder Femoralherpes, Herpes und Adenovirus-Keratitis und Konjunktivitis, Vaginitis, Endocervicitis und Exocervicitis mit Herpes-Ethiologie, Herpes Zoster der Augen und Haut angewendet.
Nigerizin-Tropfen wurden an 112 Patienten in drei Augenkliniken des Medizinischen Akademie-Forschungsinstitutes für Augenkrankheiten, Lehrstuhl für Ophthalmologie an den Hochschulen für Medizin in Varna und in Pleven verabreicht.

Herpes-Erkrankungen = assay: Efficacy of nigericin ointment depending on the start of treatment (Table 4); assay type: in vivo, Patienten; details: treatment begun on the first day; analysis of 88 patients
Text: Es wurde die Abhängigkeit zwischen der Wirksamkeit der Behandlung mit Nigerizin-Salbe und dem Beginn der Behandlung untersucht (siehe Tabelle 4). TABELLE 4
Bei 140 mit Nigerizin-Salbe behandelten Patienten wurde eine Wirksamkeit von 90% erreicht, verglichen mit weniger als 20% für die mit Placebo behandelten Kontrollgruppe. Die eingehende Analyse der Ergebnisse an 88 Patienten zeigt, daß es sehr wichtig ist, bei Nigerizin früh mit der Behandlung zu beginnen, wobei am ersten Tag die Wirksamkeit bis zu 100% beträgt. Bei den Patienten, die mit einer Placebo-Salbe behandelt wurden, wird die Wirksamkeit nicht durch die Phase der Erkrankung beeinflußt, was ihren nicht spezifischen Charakter beweist.

Auge eines Kaninchens = assay type: in vivo, Kaninchen; details: topical; doses 20 times the therapeutic concentrations; 10 days
[2] = Acute toxicity by injection (LD50); design: species or system weißen Ratten und Mäusen; details: in vivo, white rats and mice, read-out: akute Toxizität (=LD₅₀)
Protocol: (§1) Bei Spritzenbehandlung: Die akute Toxizität bei weißen Ratten und Mäusen (=LD₅₀) liegt im Bereich von 55 bis 66 mg/kg. Die chronische sechsmonatige Toxizität in Dosen bis 1/10 der LD₅₀ beträgt bis zu 5,6 mg/kg. […] Die pharmakologische Untersuchung zeigte gute Toleranz bei verschiedenen Tieren bei Konzentrationen bis zu 1/10 der LD₅₀.

Ratten = assay: Chronic six-month toxicity by injection; assay type: in vivo; details: six months, doses up to 1/10 of LD₅₀ (up to 5,6 mg/kg), blood, coagulation, blood and urine biochemistry, liver, histology, general state, weight, behaviour
Protocol: as §1

trächtigen weißen Ratten = assay: Embryotoxicity and teratogenicity by injection; assay type: in vivo; details: doses up to 5,6 mg/kg, pregnant white rats
Protocol: as §1

verschiedenen Tieren = assay: Pharmacological tolerance study; assay type: in vivo; details: various animals; up to 1/10 of LD₅₀
Protocol: as §1

zentralen Nervensystem = assay: Safety pharmacology: central nervous system; details: in vivo
Protocol: as §1

[3] = test system: Herz-Blutgefäß-System von Katzen; assay: Safety pharmacology: cardiovascular system (blood pressure, electrocardiogram); assay type: in vivo; details: cats; blood pressure and electrocardiograms
Protocol: as §1

[4] = test system: Glattmuskulatur des Magen-Darm-Wegs; assay: Safety pharmacology: smooth muscle of the gastrointestinal tract; assay type: in vivo, Ratten und Kaninchen; details: rats and rabbits
Protocol: as §1

Mutagenicity = assay: Mutagenicity
Protocol: as §1

[5] = Adenovirus-Keratokonjunktivitis

O=c1[nH]c(=O)n([C@H]2C[C@H](O)[C@@H](CO)O2)cc1I [Idoxyridin, 2'-desoxy-5-iodo-uridin]
Dauer der Behandlung (Tage) [1, 5]: 9,3 Tage
Prozent der günstigen Beeinflußung [1, 5]: 41 Prozent
Dauer der Behandlung (Tage) ([1]; Oberflächen-Herpeskeratitis): 17,9 Tage
Prozent der günstigen Beeinflußung ([1]; Oberflächen-Herpeskeratitis): 82 Prozent
Dauer der Behandlung (Tage) ([1]; Tiefe/Ulzerose/ Keratitis): 25,2 Tage
Prozent der günstigen Beeinflußung ([1]; Tiefe/Ulzerose/ Keratitis): 51 Prozent
Durchschnittsaufenthalt im Krankenhaus (Tage) ([1]; all clinical forms of the treatment group): 23,6 Tage

COC1CC(CC2CCC(C)C(C(C)C(=O)O)O2)OC2(OC(C)(C3CCC(C)(C4OC(C5OC(O)(CO)C(C)CC5C)CC4C)O3)CC2C)C1C (stereo not drawn) [Nigerizin]
Dauer der Behandlung ([1]; compared with Idoxyridin, immune and physico-chemical means): um mehr als zweimal verringert
Wirksamkeit (Herpes-Erkrankungen): ≤ 100%
toxische Wirkung am Auge (Auge eines Kaninchens): keine toxische Wirkung
LD50 [2]: 55 to 66 mg/kg
chronische sechsmonatige Toxizität: Abweichungen der behandelten Ratten (Ratten): keine Abweichungen
embryotoxische und terratogene Wirkung (trächtigen weißen Ratten): keine embryotoxische und terratogene Wirkung
Toleranz (verschiedenen Tieren): gute Toleranz
Veränderungen im zentralen Nervensystem (zentralen Nervensystem): keine Veränderungen
Wirkung auf das Herz-Blutgefäß-System [3]: keine Wirkung
Funktionen der Glattmuskulatur des Magen-Darm-Wegs [4]: ändert nicht
Mutagenität (Mutagenicity): keine Mutagenität
